Source: US20250009697A1, “COMPOSITION FOR INCREASING AMOUNT OF FOOD INGESTED AND/OR IMPROVING ANOREXIA, AND COMPOSITION FOR ACTIVATING TRANSIENT RECEPTOR POTENTIAL ANKYRIN 1” (HOUSE FOODS GROUP INC., priority 2021, published 2025)

Assays:
Type in all cases: cell-based
Human TRPM8 (hTRPM8) [1] = biological target: T1, Human TRPM8 (hTRPM8) (Homo sapiens, UniProt Q7Z2W7); experiment: TRPA1 Activation Test 1: intracellular Ca2+ imaging assay 1-2, hTRPM8 stably expressing cell line; settings: test sample 5 μM; Table 5
T1 construct: expressed in transfected cells
Experimental: (§1) DNAs encoding genes described in the following Table 2 were inserted into pcDNA 5/TO vector (Invitrogen) to prepare various expression vectors.
(§2) These expression vectors were transfected into T-REx™_293 cells (Invitrogen) by a conventional method using Lipofectamine LTX (Invitrogen). Then, various transfectants were cultured and cloned by a conventional method using Dulbecco's Modified Eagle Medium (DMEM, Nacalai Tesque Inc.), containing 10% fetal bovine serum (FBS, Cytiva), […] of hygromycin B, and 5 μg/mL of blasticidin S, as a drug selection medium to obtain a hTRPA1 stably expressing cell line, a hTRPV1 stably expressing cell line, and a hTRPM8 stably expressing cell line.
A hTRPA1 stably expressing cell line in which expression of hTRPA1 had been induced in advance by a conventional method was prepared in a 96 well clear bottom plate (black), and a hTRPA1 activating action of the purified oxylipin or the R2 fraction (both were assumed to contain a compound having a molecular weight of 294) obtained in the above item 1 was tested. […] Then, a well in which an assay buffer containing ionomycin (having a final concentration of 10 μM after the addition) instead of the test samples was added was also prepared as a reference for fluorescence intensity. […]

Human TRPM8 (hTRPM8) [2] = biological target: T1, Human TRPM8 (hTRPM8); experiment: TRPA1 Activation Test 2: intracellular Ca2+ imaging assay 2-2, hTRPM8 stably expressing cell line; settings: test sample 5 μM; Table 9
Experimental: as §1, §2
(§3) A hTRPA1 stably expressing cell line in which expression of hTRPA1 had been induced in advance by a conventional method was prepared in a 96 well clear bottom plate, and the hTRPA1 activating action of rhein (produced by Tokyo Chemical Industry Co., Ltd.) was tested. Specifically, after each well was washed with PBS, 50 μL of an assay buffer (Hanks' balanced salt solution containing no calcium ion or magnesium ion that contained 1 mM of CaCl2 dihydrate, 20 mM of HEPES, and 0.1% BSA) containing calcium fluorescent indicator Calbryte™ 520 AM (produced by AAT Bioquest) in a final concentration of 4 μM was added, followed by incubating at 33° C. for 45 minutes. After washing with the assay buffer, 100 μL of the assay buffer was added to each well. […] Then, a well in which an assay buffer containing ionomycin (having a final concentration of 10 μM after the addition) instead of the test samples was added was also prepared as a reference for fluorescence intensity.
(§4) The measurement was continued from the start of the measurement up to 120 seconds, and the TRPA1 activation ability of the test samples was calculated in accordance with the following formula.
(§5) Activation rate (%)=(Fmax[s]−F0)/(Fmax[i]−F0)×100 • Fmax[s]: The maximum value of the fluorescence intensity when the test sample or positive control was added • F0: The average value of the fluorescence intensity for 20 seconds after the start of the measurement (base line) • Fmax[i]: The maximum value of the fluorescence intensity when ionomycin was added
(§6) The TRPA1 activation ability of each test sample was measured in the same manner as in the above (2) except the test was conducted with A-967079 (1 μM), which is a TRPA1-specific antagonist, or without A-967079. In addition, intracellular Ca^2+ imaging assay was conducted in the same manner as in the above (2) except that a hTRPV1 stably expressing cell line, a hTRPM8 stably expressing cell line, or a Mock cell was used instead of the hTRPA1 stably expressing cell line. […]

Human TRPA1 (hTRPA1) [3] = biological target: T2, Human TRPA1 (hTRPA1) (Homo sapiens, UniProt O75762); experiment: TRPA1 Activation Test 1: intracellular Ca2+ imaging assay 1-1 to 1-3, hTRPA1 stably expressing cell line; settings: test sample 30 μM; for TRPA1 activation rate, With antagonist: A-967079 1 μM
T2 construct: expressed in transfected cells
Experimental: as §1, §2
A hTRPA1 stably expressing cell line in which expression of hTRPA1 had been induced in advance by a conventional method was prepared in a 96 well clear bottom plate (black), and a hTRPA1 activating action of the purified oxylipin or the R2 fraction (both were assumed to contain a compound having a molecular weight of 294) obtained in the above item 1 was tested. Specifically, after each well was washed with PBS, 50 μL of an assay buffer (Hanks' balanced salt solution containing no calcium ions or magnesium ions that contained 1 mM of CaCl2 dihydrate, 20 mM of HEPES, and 0.1% BSA) containing calcium fluorescent indicator Calbryte™ 520 AM (produced by AAT Bioquest) in a final concentration of 4 μM was added, followed by incubating at 33° C. for 45 minutes. After washing with the assay buffer, 100 μL of the assay buffer was added to each well. This plate was set to FlexStation 3 (Molecular Devices, LLC), and a fluorescence intensity (excitation wavelength 490 nm, fluorescence wavelength 525 nm) at 31° C. was measured every two seconds, and 30 seconds after the start of the measurement, 100 μL of an assay buffer containing a test sample which was prepared to have a certain final concentration or DMSO was added. Then, a well in which an assay buffer containing ionomycin (having a final concentration of 10 μM after the addition) instead of the test samples was added was also prepared as a reference for fluorescence intensity.
as §4
as §5, with “sample or the positive control” for “sample or positive control”
The TRPA1 activation ability was measured in the same manner as in the above (2) except that the R2 fraction or allyl isothiocyanate (AITC) was used as a test sample and the test was conducted with A-967079 (1 μM), which is a TRPA1-specific antagonist, or without A-967079. In addition, regarding the R2 fraction, the hTRPV1 stably expressing cell line or the hTRPM8 stably expressing cell line was used instead of the hTRPA1 stably expressing cell line to conduct the same test. Note that as positive controls, capsaicin was used for the hTRPV1 stably expressing cell line and icilin was used for the hTRPM8 stably expressing cell line.
The TRPA1 activation ability was measured in the same manner as in the above (2) except that each isolated compound or allyl isothiocyanate (AITC) was used as a test sample and the test was conducted with A-967079 (1 μM), which was a TRPA1-specific antagonist, or without A-967079.

Human TRPA1 (hTRPA1) [4] = biological target: T2, Human TRPA1 (hTRPA1); experiment: TRPA1 Activation Test 2: intracellular Ca2+ imaging assay 2-1 to 2-3, hTRPA1 stably expressing cell line; settings: test sample 30 μM
Experimental: as §1, §2
(§7) A hTRPA1 stably expressing cell line in which expression of hTRPA1 had been induced in advance by a conventional method was prepared in a 96 well clear bottom plate, and the hTRPA1 activating action of rhein (produced by Tokyo Chemical Industry Co., Ltd.) was tested. Specifically, after each well was washed with PBS, 50 μL of an assay buffer (Hanks' balanced salt solution containing no calcium ion or magnesium ion that contained 1 mM of CaCl2 dihydrate, 20 mM of HEPES, and 0.1% BSA) containing calcium fluorescent indicator Calbryte™ 520 AM (produced by AAT Bioquest) in a final concentration of 4 μM was added, followed by incubating at 33° C. for 45 minutes. After washing with the assay buffer, 100 μL of the assay buffer was added to each well. This plate was set to FlexStation 3 (Molecular Devices, LLC), and a fluorescence intensity (excitation wavelength 490 nm, fluorescence wavelength 525 nm) at 31° C. was measured every two seconds, and 30 seconds after the start of the measurement, 100 μL of an assay buffer containing a test sample (allyl isothiocyanate (AITC) of positive control or rhein) which was prepared to have a certain final concentration or DMSO was added. Then, a well in which an assay buffer containing ionomycin (having a final concentration of 10 μM after the addition) instead of the test samples was added was also prepared as a reference for fluorescence intensity.
as §4, §5
The TRPA1 activation ability of each test sample was measured in the same manner as in the above (2) except the test was conducted with A-967079 (1 μM), which is a TRPA1-specific antagonist, or without A-967079. In addition, intracellular Ca^2+ imaging assay was conducted in the same manner as in the above (2) except that a hTRPV1 stably expressing cell line, a hTRPM8 stably expressing cell line, or a Mock cell was used instead of the hTRPA1 stably expressing cell line. Note that capsaicin was used as positive control for the hTRPV1 stably expressing cell line, and icilin was used as positive control for the hTRPM8 stably expressing cell line.
A TRPA1 activation ability was measured in the same manner as in the above (2) by using, as a test sample, rhein or compounds described in the following Table 10, which had anthraquinone structures similar to rhein, at a concentration of 200 μM of the test sample.

Mock cell = experiment: TRPA1 Activation Test 2: intracellular Ca2+ imaging assay 2-2, Mock cell; settings: test sample 30 μM; Table 9
Experimental: as §7, §4
Activation rate (%)=(Fmax[s]−F0)/(Fmax[i]−F0)×100 • Fmax[s]: The maximum value of the fluorescence intensity when the test sample or positive control was added • F0: The average value of the fluorescence intensity for 20 seconds after the start of the measurement (base line) • Fmax[i]: The maximum value of the fluorescence intensity when ionomycin was added […]

Human TRPV1 (hTRPV1) [5] = biological target: T3, Human TRPV1 (hTRPV1) (Homo sapiens, UniProt Q8NER1); experiment: TRPA1 Activation Test 1: intracellular Ca2+ imaging assay 1-2, hTRPV1 stably expressing cell line; settings: test sample 1 μM; Table 5
T3 construct: expressed in transfected cells
Experimental: as §1, §2
After washing with the assay buffer, 100 μL of the assay buffer was added to each well. […] Then, a well in which an assay buffer containing ionomycin (having a final concentration of 10 μM after the addition) instead of the test samples was added was also prepared as a reference for fluorescence intensity.
as §4

Human TRPV1 (hTRPV1) [6] = biological target: T3, Human TRPV1 (hTRPV1); experiment: TRPA1 Activation Test 2: intracellular Ca2+ imaging assay 2-2, hTRPV1 stably expressing cell line; settings: test sample 1 μM; Table 9
Experimental: as §1, §2, §3, §4, §5, §6

T2 sequence (O75762 whole entry): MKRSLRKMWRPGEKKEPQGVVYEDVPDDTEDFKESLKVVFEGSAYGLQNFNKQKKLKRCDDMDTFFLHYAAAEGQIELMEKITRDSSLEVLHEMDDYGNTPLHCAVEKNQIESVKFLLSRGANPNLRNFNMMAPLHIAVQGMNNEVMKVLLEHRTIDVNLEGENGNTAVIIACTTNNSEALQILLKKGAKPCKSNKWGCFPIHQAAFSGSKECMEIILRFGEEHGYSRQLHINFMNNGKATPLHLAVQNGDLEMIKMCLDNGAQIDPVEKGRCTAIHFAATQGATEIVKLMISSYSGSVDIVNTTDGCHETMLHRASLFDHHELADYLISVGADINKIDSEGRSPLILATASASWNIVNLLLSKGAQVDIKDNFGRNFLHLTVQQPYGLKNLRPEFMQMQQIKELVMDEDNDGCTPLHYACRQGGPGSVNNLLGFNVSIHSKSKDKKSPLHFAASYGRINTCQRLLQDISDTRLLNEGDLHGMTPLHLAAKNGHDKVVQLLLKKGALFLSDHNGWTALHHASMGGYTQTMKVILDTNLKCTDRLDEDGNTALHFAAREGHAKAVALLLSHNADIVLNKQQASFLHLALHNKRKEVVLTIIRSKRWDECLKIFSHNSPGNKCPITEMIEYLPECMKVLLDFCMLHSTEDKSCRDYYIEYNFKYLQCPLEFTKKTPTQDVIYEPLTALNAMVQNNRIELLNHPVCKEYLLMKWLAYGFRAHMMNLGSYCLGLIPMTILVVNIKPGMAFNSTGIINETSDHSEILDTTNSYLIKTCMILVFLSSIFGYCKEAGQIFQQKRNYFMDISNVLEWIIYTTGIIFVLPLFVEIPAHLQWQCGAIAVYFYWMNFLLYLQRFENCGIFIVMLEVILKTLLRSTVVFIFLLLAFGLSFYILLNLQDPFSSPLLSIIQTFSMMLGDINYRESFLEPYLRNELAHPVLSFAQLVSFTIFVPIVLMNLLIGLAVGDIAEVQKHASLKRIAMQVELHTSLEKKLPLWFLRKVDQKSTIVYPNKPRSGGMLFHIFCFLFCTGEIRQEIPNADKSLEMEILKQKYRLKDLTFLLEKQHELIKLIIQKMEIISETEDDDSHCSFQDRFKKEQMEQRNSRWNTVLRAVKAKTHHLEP
T1 sequence (Q7Z2W7 whole entry): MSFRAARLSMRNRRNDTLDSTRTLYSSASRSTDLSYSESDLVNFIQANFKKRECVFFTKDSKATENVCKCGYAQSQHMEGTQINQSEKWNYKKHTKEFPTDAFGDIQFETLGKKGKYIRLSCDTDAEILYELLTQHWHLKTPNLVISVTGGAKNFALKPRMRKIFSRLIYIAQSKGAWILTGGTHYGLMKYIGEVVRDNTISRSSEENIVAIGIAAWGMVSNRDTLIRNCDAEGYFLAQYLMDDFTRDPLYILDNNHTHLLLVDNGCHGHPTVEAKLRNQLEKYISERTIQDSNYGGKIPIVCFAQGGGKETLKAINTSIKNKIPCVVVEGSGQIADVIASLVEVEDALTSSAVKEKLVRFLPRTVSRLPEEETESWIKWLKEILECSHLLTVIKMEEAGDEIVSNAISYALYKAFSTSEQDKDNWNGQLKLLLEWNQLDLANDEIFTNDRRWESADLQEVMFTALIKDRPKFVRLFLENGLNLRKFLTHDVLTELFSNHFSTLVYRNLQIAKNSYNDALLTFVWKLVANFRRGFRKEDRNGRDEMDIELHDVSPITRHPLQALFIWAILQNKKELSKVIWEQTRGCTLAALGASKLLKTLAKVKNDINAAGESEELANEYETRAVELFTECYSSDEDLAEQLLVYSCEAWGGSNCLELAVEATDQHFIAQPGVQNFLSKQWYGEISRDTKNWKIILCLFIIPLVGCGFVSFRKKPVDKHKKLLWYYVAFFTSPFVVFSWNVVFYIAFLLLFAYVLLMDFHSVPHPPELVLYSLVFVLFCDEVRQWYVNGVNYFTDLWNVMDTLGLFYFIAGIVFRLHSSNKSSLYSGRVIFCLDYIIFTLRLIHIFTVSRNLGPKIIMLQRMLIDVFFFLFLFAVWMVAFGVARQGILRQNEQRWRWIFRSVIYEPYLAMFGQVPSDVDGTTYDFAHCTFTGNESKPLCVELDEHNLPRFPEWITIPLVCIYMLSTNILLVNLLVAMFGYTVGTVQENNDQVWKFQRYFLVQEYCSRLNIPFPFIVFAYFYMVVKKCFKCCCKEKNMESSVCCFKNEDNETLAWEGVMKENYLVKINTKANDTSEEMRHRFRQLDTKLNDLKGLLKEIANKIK
T3 sequence (Q8NER1 whole entry): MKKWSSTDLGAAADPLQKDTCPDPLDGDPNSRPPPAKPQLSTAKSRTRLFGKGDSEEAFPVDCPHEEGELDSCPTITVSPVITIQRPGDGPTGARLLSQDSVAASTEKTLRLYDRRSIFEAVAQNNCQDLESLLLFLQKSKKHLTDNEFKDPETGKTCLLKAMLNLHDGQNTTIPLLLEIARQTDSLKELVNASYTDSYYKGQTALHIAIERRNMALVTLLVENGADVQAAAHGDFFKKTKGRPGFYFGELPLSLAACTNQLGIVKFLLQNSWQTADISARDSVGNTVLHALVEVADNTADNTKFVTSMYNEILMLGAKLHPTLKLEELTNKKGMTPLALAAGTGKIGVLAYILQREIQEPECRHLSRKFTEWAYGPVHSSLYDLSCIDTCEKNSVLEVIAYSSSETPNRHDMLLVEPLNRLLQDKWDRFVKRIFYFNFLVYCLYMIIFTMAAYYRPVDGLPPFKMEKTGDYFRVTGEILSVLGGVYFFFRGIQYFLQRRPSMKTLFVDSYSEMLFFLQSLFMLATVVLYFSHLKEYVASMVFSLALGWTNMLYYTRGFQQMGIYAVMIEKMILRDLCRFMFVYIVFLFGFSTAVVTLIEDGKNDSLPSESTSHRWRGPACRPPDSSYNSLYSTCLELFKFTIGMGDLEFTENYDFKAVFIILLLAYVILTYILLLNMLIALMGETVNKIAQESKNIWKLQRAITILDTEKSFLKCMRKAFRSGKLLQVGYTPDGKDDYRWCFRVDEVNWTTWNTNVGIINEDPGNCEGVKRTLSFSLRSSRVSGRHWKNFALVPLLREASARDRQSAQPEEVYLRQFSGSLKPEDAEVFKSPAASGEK

O=C1NC(c2cccc([N+](=O)[O-])c2)=CCN1c1ccccc1O [Icilin, icilin, reference compound]
TRPM8 activation rate (Human TRPM8 (hTRPM8) [1]): 79.8 ± 1.71% | TRPM8 activation rate (Human TRPM8 (hTRPM8) [2]): 104 ± 2.19^ %

C=CCN=C=S [AITC, allyl isothiocyanate, reference compound]
TRPA1 activation rate, With antagonist (Human TRPA1 (hTRPA1) [3]; Table 4): 1.30 ± 0.639% | TRPA1 activation rate, With antagonist (Human TRPA1 (hTRPA1) [3]; Table 6): 1.44 ± 0.163% | TRPA1 activation rate, Without antagonist (Human TRPA1 (hTRPA1) [3]; Table 4): 160 ± 2.58% | TRPA1 activation rate, Without antagonist (Human TRPA1 (hTRPA1) [3]; Table 6): 128 ± 2.99% | TRPA1 activation rate, With antagonist (Human TRPA1 (hTRPA1) [4]; A-967079 1 μM, Table 8): 15.7 ± 7.81 % | TRPA1 activation rate, With antagonist (Human TRPA1 (hTRPA1) [4]; A-967079, Table 11): 0.811 ± 0.0386 % | TRPA1 activation rate (Human TRPA1 (hTRPA1) [4]; Table 7): 101 ± 3.66% | TRPA1 activation rate, Without antagonist (Human TRPA1 (hTRPA1) [4]; Table 8): 104 ± 6.10% | TRPA1 activation rate, Without antagonist (Human TRPA1 (hTRPA1) [4]; Table 11): 115 ± 6.15% | Activation rate, Mock (Mock cell): 6.40 ± 0.143%

COc1cc(CNC(=O)CCCC/C=C/C(C)C)ccc1O [Capsaicin, capsaicin, reference compound]
TRPV1 activation rate (Human TRPV1 (hTRPV1) [5]): 113 ± 1.16% | TRPV1 activation rate (Human TRPV1 (hTRPV1) [6]): 96.3 ± 3.24%
